What was measured:
Format in all cases: in vivo
Kochia (Kochia scoparia) [1] = assay: Test A postemergence; details: Bassia scoparia, post-emergence, 240 h, Postemergence, read-out: Kochia plant response rating (0 to 100 scale); for pest or weed control at 125 g/ha: 125 g ai/ha, visual rating about 10 d after treatment; for pest or weed control at 31 g/ha: 31 g ai/ha, 0 is no effect, 100 is complete control
Method in brief: (§1)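 Preemergence soil spray on seeded pots or post-emergence spray on 1–2 leaf plants, in loam–sand blend. Greenhouse ~10 d. Visual rating 0–100 against untreated plants.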

[2] = system: ryegrass, Italian (Italian ryegrass, Lolium multiflorum); assay: Test A postemergence; details: Lolium multiflorum, post-emergence, 240 h, Postemergence, read-out: Ryegrass, Italian plant response rating (0 to 100 scale); for pest or weed control at 125 g/ha: 125 g ai/ha, visual rating about 10 d after treatment; for pest or weed control at 31 g/ha: 31 g ai/ha, 0 is no effect, 100 is complete control
Method in brief: as §1

[3] = system: giant foxtail (Setaria faberii); assay: Test A postemergence; details: Setaria faberi, post-emergence, 240 h, Postemergence, read-out: Foxtail, Giant plant response rating (0 to 100 scale); for pest or weed control at 125 g/ha: 125 g ai/ha, visual rating about 10 d after treatment; for pest or weed control at 31 g/ha: 31 g ai/ha, 0 is no effect, 100 is complete control
Method in brief: as §1

[4] = system: Galium (catchweed bedstraw, Galium aparine); assay: Test A postemergence; details: Galium, post-emergence, 240 h, Postemergence, read-out: Galium plant response rating (0 to 100 scale); for pest or weed control at 125 g/ha: 125 g ai/ha, visual rating about 10 d after treatment; for pest or weed control at 31 g/ha: 31 g ai/ha, 0 is no effect, 100 is complete control
Method in brief: as §1

[5] = system: wheat (Triticum aestivum); assay: Test A postemergence; details: Triticum aestivum, post-emergence, 240 h, Postemergence, read-out: Wheat plant response rating (0 to 100 scale); for plant injury at 125 g/ha: 125 g ai/ha, visual rating about 10 d after treatment; for plant injury at 31 g/ha: 31 g ai/ha, 0 is no effect, 100 is complete control
Method in brief: as §1

[6] = system: pigweed (Amaranthus retroflexus); assay: Test A postemergence; details: Amaranthus retroflexus, post-emergence, 240 h, Postemergence, read-out: Pigweed plant response rating (0 to 100 scale); for pest or weed control at 125 g/ha: 125 g ai/ha, visual rating about 10 d after treatment; for pest or weed control at 31 g/ha: 31 g ai/ha, 0 is no effect, 100 is complete control
Method in brief: as §1

corn (Zea mays) = assay: Test A postemergence; details: Zea mays, post-emergence, 240 h, Postemergence, read-out: Corn plant response rating (0 to 100 scale); for plant injury at 125 g/ha: 125 g ai/ha, visual rating about 10 d after treatment; for plant injury at 31 g/ha: 31 g ai/ha, 0 is no effect, 100 is complete control
Method in brief: as §1

[7] = system: barnyardgrass (Echinochloa crus-galli); assay: Test A postemergence; details: Echinochloa crus-galli, post-emergence, 240 h, Postemergence; for pest or weed control at 125 g/ha: 125 g ai/ha, visual rating about 10 d after treatment, read-out: Barnyardgrass plant response rating (0 to 100 scale, 0 no effect, 100 complete control); for pest or weed control at 31 g/ha: 31 g ai/ha, 0 is no effect, 100 is complete control, read-out: Barnyardgrass plant response rating (0 to 100 scale)
Method in brief: as §1

[8] = system: ragweed (common ragweed, Ambrosia elatior); assay: Test A postemergence; details: Ambrosia artemisiifolia, post-emergence, 240 h, Postemergence, read-out: Ragweed plant response rating (0 to 100 scale); for pest or weed control at 125 g/ha: 125 g ai/ha, visual rating about 10 d after treatment; for pest or weed control at 31 g/ha: 31 g ai/ha, 0 is no effect, 100 is complete control
Method in brief: as §1

[9] = system: blackgrass (Alopecurus myosuroides); assay: Test A postemergence; details: Alopecurus myosuroides, post-emergence, 240 h, Postemergence, read-out: Blackgrass plant response rating (0 to 100 scale); for pest or weed control at 125 g/ha: 125 g ai/ha, visual rating about 10 d after treatment; for pest or weed control at 31 g/ha: 31 g ai/ha, 0 is no effect, 100 is complete control
Method in brief: as §1

Kochia (Kochia scoparia) [10] = assay: Test A preemergence; details: Bassia scoparia, pre-emergence, 240 h, Preemergence; for pest or weed control at 31 g/ha: 31 g ai/ha, 0 to 100 scale where 0 is no effect and 100 is complete control, read-out: Kochia plant response rating; for pest or weed control at 125 g/ha: 125 g ai/ha, 0 to 100 scale (0 no effect, 100 complete control), read-out: Plant response rating, Kochia
Method in brief: as §1

[11] = system: ryegrass, Italian (Italian ryegrass, Lolium multiflorum); assay: Test A preemergence; details: Lolium multiflorum, pre-emergence, 240 h, Preemergence; for pest or weed control at 31 g/ha: 31 g ai/ha, 0 to 100 scale where 0 is no effect and 100 is complete control, read-out: Ryegrass, Italian plant response rating; for pest or weed control at 125 g/ha: 125 g ai/ha, 0 to 100 scale (0 no effect, 100 complete control), read-out: Plant response rating, Ryegrass, Italian
Method in brief: as §1

[12] = system: giant foxtail (Setaria faberii); assay: Test A preemergence; details: Setaria faberi, pre-emergence, 240 h, Preemergence; for pest or weed control at 31 g/ha: 31 g ai/ha, 0 to 100 scale where 0 is no effect and 100 is complete control, read-out: Foxtail, Giant plant response rating; for pest or weed control at 125 g/ha: 125 g ai/ha, 0 to 100 scale (0 no effect, 100 complete control), read-out: Plant response rating, Foxtail, Giant
Method in brief: as §1

[13] = system: pigweed (Amaranthus retroflexus); assay: Test A preemergence; details: Amaranthus retroflexus, pre-emergence, 240 h, Preemergence; for pest or weed control at 31 g/ha: 31 g ai/ha, 0 to 100 scale where 0 is no effect and 100 is complete control, read-out: Pigweed plant response rating; for pest or weed control at 125 g/ha: 125 g ai/ha, 0 to 100 scale (0 no effect, 100 complete control), read-out: Plant response rating, Pigweed
[14] = system: barnyardgrass (Echinochloa crus-galli); assay: Test A preemergence; details: Echinochloa crus-galli, pre-emergence, 240 h, Preemergence; for pest or weed control at 31 g/ha: 31 g ai/ha, 0 to 100 scale where 0 is no effect and 100 is complete control, read-out: Barnyardgrass plant response rating; for pest or weed control at 125 g/ha: 125 g ai/ha, 0 to 100 scale (0 no effect, 100 complete control), read-out: Plant response rating, Barnyardgrass
Method in brief: as §1

[15] = system: ragweed (common ragweed, Ambrosia elatior); assay: Test A preemergence; details: Ambrosia artemisiifolia, pre-emergence, 240 h, Preemergence; for pest or weed control at 31 g/ha: 31 g ai/ha, 0 to 100 scale where 0 is no effect and 100 is complete control, read-out: Ragweed plant response rating; for pest or weed control at 125 g/ha: 125 g ai/ha, 0 to 100 scale (0 no effect, 100 complete control), read-out: Plant response rating, Ragweed
Method in brief: as §1

rice (Oryra sativa) = assay: Test B flooded paddy test; details: Oryza sativa, 360 h, Flood, 250 g ai/ha; visually evaluated after 13 to 15 d; read-out: Plant response rating, Rice (0 to 100 scale where 0 is no effect and 100 is complete control)
Method in brief: (§2)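 Rating scale 0–100 (visual, vs untreated controls) after a 13–15 d greenhouse period; application to the flood layer, 3 cm above soil and maintained; plants at 2-leaf stage when treated.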

[16] = system: ducksalad (Heteranthera limosa); assay: Test B flooded paddy test; details: Heteranthera limosa, 360 h, Flood, 250 g ai/ha; visually evaluated after 13 to 15 d; read-out: Plant response rating, Ducksalad (0 to 100 scale where 0 is no effect and 100 is complete control)
Method in brief: as §2

[17] = system: sedge, umbrella (small-flower umbrella sedge, Cyperus difformis); assay: Test B flooded paddy test; details: Cyperus difformis, 360 h, Flood, 250 g ai/ha; visually evaluated after 13 to 15 d; read-out: Plant response rating, Sedge, Umbrella (0 to 100 scale where 0 is no effect and 100 is complete control)
Method in brief: as §2

[18] = system: barnyardgrass (Echinochloa crus-galli); assay: Test B flooded paddy test; details: Echinochloa crus-galli, 360 h, Flood, 250 g ai/ha; visually evaluated after 13 to 15 d; read-out: Plant response rating, Barnyardgrass (0 to 100 scale where 0 is no effect and 100 is complete control)
Method in brief: as §2

Compound | pest or weed control at 125 g/ha (Kochia (Kochia scoparia) [1]) | pest or weed control at 31 g/ha (Kochia (Kochia scoparia) [1]) | pest or weed control at 125 g/ha [2] | pest or weed control at 31 g/ha [2] | pest or weed control at 125 g/ha [3] | pest or weed control at 31 g/ha [3] | pest or weed control at 125 g/ha [4] | pest or weed control at 31 g/ha [4] | plant injury at 125 g/ha [5] | plant injury at 31 g/ha [5] | pest or weed control at 125 g/ha [6] | pest or weed control at 31 g/ha [6] | plant injury at 125 g/ha (corn (Zea mays)) | plant injury at 31 g/ha (corn (Zea mays)) | pest or weed control at 125 g/ha [7] | pest or weed control at 31 g/ha [7] | pest or weed control at 125 g/ha [8] | pest or weed control at 31 g/ha [8] | pest or weed control at 125 g/ha [9] | pest or weed control at 31 g/ha [9] | other results
COc1c([C@H]2CN(C)C(=O)[C@@H]2C(=O)Nc2ccccc2SC)cccc1C(F)(F)F [Compound 1340] | 20% | 0% | 0% | 0% | 50% | 0% | 20% | 0% | 0% | 0% | 0% | 0% | 20% | 0% | 30% | 20% | 0% | 0% | 0% | 0% | pest or weed control at 31 g/ha (Kochia (Kochia scoparia) [10]): 0%; pest or weed control at 125 g/ha (Kochia (Kochia scoparia) [10]): 0%; pest or weed control at 31 g/ha [11]: 0%; pest or weed control at 125 g/ha [11]: 0%; pest or weed control at 31 g/ha [12]: 40%; pest or weed control at 125 g/ha [12]: 90%; pest or weed control at 31 g/ha [13]: 0%; pest or weed control at 125 g/ha [13]: 20%; pest or weed control at 31 g/ha [14]: 90%; pest or weed control at 125 g/ha [14]: 90%; pest or weed control at 31 g/ha [15]: 0%; pest or weed control at 125 g/ha [15]: 0%; pest or weed control at 250 g/ha (rice (Oryra sativa)): 20%; pest or weed control at 250 g/ha [16]: 80%; pest or weed control at 250 g/ha [17]: 0%; pest or weed control at 250 g/ha [18]: 40%
Cc1cccc([C@H]2CN(C)C(=O)[C@@H]2C(=O)Nc2cccnc2F)c1 [Compound 1345] | 0% | 0% | 0% | 0% | 90% | 20% | 20% | 0% | 0% | 0% | 0% | 0% | 0% | 0% | 90% | 50% | 0% | 0% | 20% | 0% | pest or weed control at 31 g/ha (Kochia (Kochia scoparia) [10]): 0%; pest or weed control at 125 g/ha (Kochia (Kochia scoparia) [10]): 40%; pest or weed control at 31 g/ha [11]: 0%; pest or weed control at 125 g/ha [11]: 0%; pest or weed control at 31 g/ha [12]: 90%; pest or weed control at 125 g/ha [12]: 100%; pest or weed control at 31 g/ha [13]: 0%; pest or weed control at 125 g/ha [13]: 0%; pest or weed control at 31 g/ha [14]: 80%; pest or weed control at 125 g/ha [14]: 100%; pest or weed control at 31 g/ha [15]: 0%; pest or weed control at 125 g/ha [15]: 60%; pest or weed control at 250 g/ha (rice (Oryra sativa)): 0%; pest or weed control at 250 g/ha [16]: 95%; pest or weed control at 250 g/ha [17]: 0%; pest or weed control at 250 g/ha [18]: 90%

From patent US12077503B2, “Substituted cyclic amides and their use as herbicides” (FMC CORPORATION, priority 2015, dated 2024)
